Results taken from PubChem BioAssay (NCI).
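These data come from cells grown in 96-well plates and exposed to compound for 48 hours at five concentrations. GI50: concentration for 50% inhibition of growth. TGI: total growth inhibition.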

Key:
Assay in all cases: inhibition of tumour cell growth, NCI panel, 48 h
A549 NSCLC = tested on: A549 NSCLC
BT-549 breast = tested on: BT-549 breast
HL-60(TB) leukemia = tested on: HL-60(TB) leukemia
HOP-62 NSCLC = tested on: HOP-62 NSCLC
NCI/ADR-RES ovarian = tested on: NCI/ADR-RES ovarian
OVCAR-3 ovarian = tested on: OVCAR-3 ovarian
SF-268 CNS = tested on: SF-268 CNS
SN12C renal = tested on: SN12C renal
SR leukemia = tested on: SR leukemia
UACC-62 melanoma = tested on: UACC-62 melanoma

Structure (SMILES)	TGI (A549 NSCLC) [µM]	TGI (BT-549 breast) [µM]	TGI (HL-60(TB) leukemia) [µM]	TGI (HOP-62 NSCLC) [µM]	TGI (NCI/ADR-RES ovarian) [µM]	TGI (OVCAR-3 ovarian) [µM]	TGI (SF-268 CNS) [µM]	TGI (SN12C renal) [µM]	TGI (SR leukemia) [µM]	TGI (UACC-62 melanoma) [µM]	GI50 (A549 NSCLC) [µM]	GI50 (BT-549 breast) [µM]	GI50 (HL-60(TB) leukemia) [µM]	GI50 (HOP-62 NSCLC) [µM]	GI50 (NCI/ADR-RES ovarian) [µM]	GI50 (OVCAR-3 ovarian) [µM]	GI50 (SF-268 CNS) [µM]	GI50 (SN12C renal) [µM]	GI50 (SR leukemia) [µM]	GI50 (UACC-62 melanoma) [µM]
CCc1nc(N)nc(N)c1-c1ccc(NCCN)c([N+](=O)[O-])c1	> 100	> 100	> 100	75.8	> 100	> 100	> 76.3	> 100	> 55.8	> 100										
Cn1cc(-c2ccc3c(Nc4cccc(NC(=O)Nc5cccc(F)c5)c4)ncnc3c2)cn1	17.9	16	28	14.9	> 100	3.27	11.2	4.29	> 100	15	1.85	4.04	5.9	1.84	10.8	1.51	1.64	1.6	1.24	3.21
COC(=O)CCC(=O)C(=O)OC		96200	61600					62100	41100	51100	52900	26300	23600	23700	72600	28600	26400	21500	4360	13600
COc1cccc(C2c3cc4c(cc3OC(C)(N3CCCC3)C2C)OCO4)c1OC (stereo not given)	35.8	32.6	22.8	30.6	76.8	25.4	81.3	41.6	22.5	51.5										
COc1ccccc1NC(=O)c1sc2nc3c(cc2c1N)C(=O)CCC3	> 100	> 100	> 100	7.17	> 100	> 100	> 100	> 100	> 100	> 100	2.11	4.43	> 100	2.37	7.14	25.3	5.06	> 100	> 100	3.99
Cc1nc(-c2cccc(Nc3nc(-c4ccc(Cl)cc4)cs3)c2)cs1	24.7	21.6	> 50	24.5	12.2	23.1	24.2	17.1	27	15	8.9	10.7	19.8	12.3	5.14	10.5	10.4	9.3	8.31	6.83
CCCCON(OC(=O)c1ccccc1)C(=O)c1ccccc1	> 100	> 100	> 100	> 100	> 100	> 100	> 100	> 100	> 100	> 100	> 100	> 100	88.7	> 100	> 100	> 100	> 100	> 100	30.3	> 100
